# Ends that are not written are not given here.
# Legend:
# [1] = test system: rat primary cortical neurons; assay: Rat primary cortical neurons transduced with AAVs, immunofluorescence and immunoblot; format: cell-based
# Procedure: Infected neurons were scraped from 6-well dishes and lysed with RIPA buffer containing protease inhibitor cocktail (Roche). The Triton X-100 soluble fraction was then separated from the insoluble pellet by centrifugation. Protein concentration was quantified using the DC protein assay (BioRad). For each condition, 20 μg of protein lysate was run on 4-15% acrylamide gels (BioRad) and subsequently transferred onto a polyvinylidene difluoride (PVDF) membrane. Blots were blocked with 5% skim milk in TBS+0.01% Tween-20 (TBS-T) for 1 h prior to incubation with primary antibody overnight at 4° C. Blots were subsequently washed 3 times in TBS-T for 10 minutes per wash, incubated in species specific secondary antibody for 1 h at 21° C., washed again, and then developed using ECL immunoblotting substrate (Pierce) and visualized on HyBlot CL autoradiographic film (Denville Scientific).
# Pregnant rats (E17) of the Sprague-Dawley strain were purchased from Envigo. Embryos were surgically removed from the mothers and cortices dissected in Hanks Balanced salt solution (Gibco). The meninges were removed, and cells were dissociated using a papain dissociation system (Worthington) before being resuspended in Neurobasal medium A supplemented with antibiotic-antimycotic solution (Gibco), L-glutamine substitute (GlutaMAX™; Gibco) and factor B27 (Gibco). Cells were plated on poly-D-lysine coated glass coverslips at a density of 5×10^5 cells/well, or on poly-D-lysine coated 6-well cell culture plates at a density of 2×10^6 cells/well, and incubated at 37° C. in 5% CO2 with half media changes every 3 days. Cells were transduced with AAVs 2 days post-isolation at a multiplicity of infection (MOI) of 3000. Media containing AAV vectors were removed after 72 h and cells were fixed with 4% PFA for immunofluorescence staining or lysed for immunoblotting at 8 days post-isolation.
# After fixation, cells were permeabilized with 0.2% Triton X-100 for 15 min, washed 3 times with PBS and then incubated with blocking solution (1% BSA, 22.52 mg/mL glycine, 0.1% Tween-20 in PBS) for 1 h. Primary antibodies were diluted in blocking solution and incubated overnight at 4° C. Following three washes with PBS, cells were next incubated with fluorescent secondary antibodies diluted in blocking solution for 1 h at room temperature. Following another 3 PBS washes, nuclei were counterstained with DAPI (ThermoFisher) and then coverslips were mounted on slides using fluorescence mounting medium (DAKO) and sealed using clear nail varnish.
# Confocal images of primary cortical neurons, dopaminergic neurons, and LAMP1 staining within the SN were processed using Imaris software (Oxford instruments). Z stacks were projected to give a 3D reconstruction of the field of view and mean pixel intensity per GFP^+ cell (or RFP^+ cell for V1S/SV2 experiments) was calculated for a-syn or LAMP1 signal using the software's surfaces module. For LAMP1 staining within the SN, the number of LAMP1^+ puncta within GFP^+ cells was calculated for each field of view; 3 fields of view were imaged/animal.
# [2] = test system: SNCA triplication fibroblasts; assay: SNCA triplication fibroblasts from a PD patient transduced with AAV peptides; format: cell-based, human
# Procedure: HEK293T cells, tet-off split luciferase a-syn cells, tet-off parent cells and SH-SY5Y cell lines were maintained in DMEM (ATCC) supplemented with 10% FBS and 1% pen/strep/glutamine, and the appropriate selection antibiotics when required. tet-off split luciferase a-syn cells and tet-off parent cells were kept with doxycycline at 1 ng/mL for inhibition of gene expression. SNCA triplication fibroblasts were obtained from NINDS (National Institute of Neurological Disorders and Stroke) and maintained in DMEM supplemented with 10% FBS and 1% pen/strep/glutamine. HA antibodies were obtained from Santa Cruz (7392) and Flag antibodies were purchased from Sigma (A8592). GFP antibodies were purchased from Abcam (ab290).
# The Lysosome Intracellular Activity Assay kit was purchased from Abcam and used per manufacturer's instructions (ab234622). […] For HEK293 cells, cells were re-suspended in PBS containing DMSO or Leupeptin and analyzed by FACS. […]
# After fixation, cells were permeabilized with 0.2% Triton X-100 for 15 min, washed 3 times with PBS and then incubated with blocking solution (1% BSA, 22.52 mg/mL glycine, 0.1% Tween-20 in PBS) for 1 h. […] Following another 3 PBS washes, nuclei were counterstained with DAPI (ThermoFisher) and then coverslips were mounted on slides using fluorescence mounting medium (DAKO) and sealed using clear nail varnish.
sequence,measurement,setting,value
DEEIERQLKALG [PDpep1.3],total a-syn fluorescence,"[1]; neurons with V1S and SV2 or V1S alone (WT a-syn), RFP-tagged peptide vs Scramble1.3",significant lowering
same,LAMP1 levels,[1]; rat cortical neurons expressing human A53T a-syn,restored LAMP1 levels
same,YFP fluorescence from co-expressed V1S and SV2 (a-syn oligomers),[1]; rat primary cortical neurons,reduced YFP fluorescence
same,endogenous a-syn fluorescence intensity,[1]; rat primary cortical neurons,reduced fluorescence intensity
same,total A53T a-syn protein levels by immunoblotting of neuronal lysates,[1]; rat primary cortical neurons,reduction
same,A53T a-syn fluorescence intensity,"[1]; rat primary cortical neurons, AAV A53T a-syn plus GFP-tagged peptide, vs Scramble1.3",significant decrease
same,fluorescence of YFP alone,"[1]; rat primary cortical neurons, control",no effect
same,levels of truncated A53T a-syn lacking amino acids 103-140 (HA immunostaining),"[1]; rat primary cortical neurons, vs Scramble1.3",did not reduce
same,lysosomal activity (lysosomal flux assay),[2],increased lysosomal activity
same,a-syn fluorescence,"[2]; RFP-tagged peptides, vs Scramble1.3",reduced a-syn fluorescence

# Source: patent US20250051391A1, “PEPTIDE INHIBITORS AND METHODS FOR INHIBITING PROTEIN AGGREGATION IN NEURONS AND NEURODEGENERATIVE DISEASES” (THE GOVERNING COUNCIL OF THE UNIVERSITY OF TORONTO, priority 2021, published 2025)
